What follows are compounds tested on human colon tumor COLO 205 (assay: In vivo anti-tumor test using human colon tumor bearing nude mice). Conditions: COLO 205 bearing nude mice, oral once a day for 14 days, 10 or 30 mg/kg/day.
Set-up: species or system female Balb/c nude mouse
Method: Test method: A total of 4×10^6 cells of a human colon tumor COLO 205 were administered under the dorsal side skin of each female Balb/c nude mouse. When the tumor volume reached 50 to 100 mm^3, each of the test compounds was orally administered once a day for 14 days. In addition, 0.5% methyl cellulose aqueous solution was orally administered to the control group. Calipers were used for the measurement of tumor diameter, and it was measured on the next day of the final administration. In this case, the tumor volume was calculated using the following calculation formula. Tumor volume=(width^2×length)/2
With `O=C1Nc2cc(F)ccc2C1=C1C=Cc2cc(OCCN3CCOCC3)ccc2N1` [Example 310] the “tumor growth inhibition (tumor volume) versus control” value was “inhibit the tumor growth with a significance for the control”. `O=C1Nc2ccccc2C1=C1C=Cc2cc(CNC3CCOCC3)ccc2N1` [Example 115] was tested, and the “tumor growth inhibition (tumor volume) versus control” value was “inhibit the tumor growth with a significance for the control”. `O=C1Nc2ccccc2C1=C1C=Cc2cc(CNCC3CCCO3)ccc2N1` (centres unmarked) [Example 111] was tested, and the “tumor growth inhibition (tumor volume) versus control” value was “inhibit the tumor growth with a significance for the control”. In the case of `CCN1CCN(Cc2ccc3c(c2)C=CC(=C2C(=O)Nc4ccccc42)N3)CC1` [Example 134, 3-{6-[(4-ethylpiperazin-1-yl)methyl]quinolin-2(1H)-ylidene}indolin-2-one], the “tumor growth inhibition (tumor volume) versus control” value is reported as “inhibit the tumor growth with a significance for the control”. In the case of `CN1CCN(Cc2ccc3c(c2)C=CC(=C2C(=O)Nc4ccccc42)N3)CC1` [Example 132, 3-{6-[(4-methylpiperazin-1-yl)methyl]quinolin-2(1H)-ylidene}indolin-2-one], the “tumor growth inhibition (tumor volume) versus control” value is reported as “inhibit the tumor growth with a significance for the control”. For `CCN(CC)CCCc1ccc2c(c1)C=CC(=C1C(=O)Nc3ccccc31)N2` [Example 99], the “tumor growth inhibition (tumor volume) versus control” value was “inhibit the tumor growth with a significance for the control”. For `O=C1Nc2ccccc2C1=C1C=Cc2cc(OCCN3CCOCC3)ccc2N1` [Example 4, 3-[6-(2-morpholin-4-ylethoxy)quinolin-2(1H)-ylidene]indolin-2-one], the “tumor growth inhibition (tumor volume) versus control” value was “inhibit the tumor growth with a significance for the control”. In the case of `CN1CCN(CCOc2ccc3c(c2)C=CC(=C2C(=O)Nc4ccccc42)N3)CC1` [Example 41], the “tumor growth inhibition (tumor volume) versus control” value is reported as “inhibit the tumor growth with a significance for the control”. For `CCN(CC)CCOc1ccc2c(c1)C=CC(=C1C(=O)Nc3ccccc31)N2.O=C(O)CCC(=O)O` [Example 44], the “tumor growth inhibition (tumor volume) versus control” value was “inhibit the tumor growth with a significance for the control”. With `O=C1Nc2ccc(F)cc2C1=C1C=Cc2cc(OCCN3CCOCC3)ccc2N1` [Example 311] the “tumor growth inhibition (tumor volume) versus control” value was “inhibit the tumor growth with a significance for the control”. In the case of `CN1CCN(C(=O)c2ccc3c(c2)C=CC(=C2C(=O)Nc4ccccc42)N3)CC1` [Example 148, 3-[6-(4-methylpiperazine-1-carbonyl)quinolin-2(1H)-ylidene]indolin-2-one], the “tumor growth inhibition (tumor volume) versus control” value is reported as “inhibit the tumor growth with a significance for the control”. For `Cl.O=C1Nc2ccccc2C1=C1C=Cc2cc(CNCC3CCOCC3)ccc2N1` [Example 113], the “tumor growth inhibition (tumor volume) versus control” value was “inhibit the tumor growth with a significance for the control”. With `O=C1Nc2ccccc2C1=C1C=Cc2cc(CN3CCOCC3)ccc2N1` [Example 54] the “tumor growth inhibition (tumor volume) versus control” value was “inhibit the tumor growth with a significance for the control”.

Each compound was assayed on VEGF-dependent in vitro angiogenesis (endotherial vessel forming amount) (assay: In vitro angiogenesis inhibition test (KURABO angiogenesis kit, CD31 staining)). Conditions: Homo sapiens, 312 h; 10 ng/ml VEGF, 13 days culture, anti-VEGF antibody as 0% control.
Format: cell-based
Method: Test method: An angiogenesis assay kit (mfd. by KURABO was used. A medium prepared by adding 10 ng/ml of VGEF (R & D Systems) to the special medium attached to the kit used as the culture medium. Each test drug was prepared as a 10 mM DMSO solution and added to a final concentration of from 0.003 to 1 μM by diluting with the special medium. Amount of angiogenesis under a condition of not adding the test drug was used as the positive control, and a condition under which 25 μg/ml of an anti-VEGF antibody (Sigma) was added was used as the negative control. On the 4th, 7th and 10th days after commencement of the culturing, the test drug was prepared as described in the above and exchanged with the medium of each well. On the 13th day, fixation of the cell layer was carried out in accordance with the method attached to the kit. That is, fixation of cell layer was carried out by adding ice-cooled 70% ethanol after washing with a physiological phosphate buffer and then allowing to stand at room temperature for 30 minutes. […]
A endotherial vessel staining kit CD31 for staining (mfd. by KURABO) was used for the staining of the thus formed hollow organ. […] By importing the file preserved in the imaging software, the number of pixel obtained by threshold and measure commands was recorded. […]
`O=C1Nc2ccccc2C1=C1C=Cc2ccccc2N1` [Compound A, 3-quinolin-2(1H)-ylideneindolin-2-one] was tested, and the IC50 was 69 nM.

These compounds were tested on Human umbilical vein endothelial cells (HUVEC), VEGF-stimulated (assay: Test on the inhibition of VEGF-stimulated HUVEC growth ([3H]thymidine incorporation)). Conditions: human recombinant VEGF 10 ng/ml.
Format: cell-based
Method: Test method: (Cell culture) Human umbilical vein endothelial cells (HUVEC) were cultured using EGM-2 complete medium (Clonetics) which had been supplemented with additives (2% FBS, 0.4% FGF (fibroblast growth factor), 0.1% VEGF, 0.1% IGF-I (insulin like growth factor-I), 0.1% EGF (epidermal growth factor), 0.1% ascorbic acid, 0.1% GA-1000, 0.1% heparin and 0.04% hydrocortisone).
(Evaluation of compounds) HUVEC (10,000 cells/well) were inoculated into EGM-2 complete medium in a gelatin-coated 96 well plate (mfd. by IWAKI) and cultured overnight. After washing with a physiological phosphate buffer, the medium was exchanged with a low serum medium (Medium 199/0.1% FBS) and the culturing was continued for 24 hours. Each of the compounds to be evaluated was prepared as a 10 mM DMSO solution and diluted with the low serum medium. This was added to each well to a final concentration of from 0.001 to 10 μM. After 2 hours of the compound treatment, human recombinant VEGF (R & D Systems) was added to a final concentration of 10 ng/ml. After 18 hours, [^3H]thymidine (Amersham Pharmacia) was added in 5 μCi/well portions. After 4 hours, the reaction was terminated by adding 0.2% SDS in 50 μl/well portions, and the product was recovered on GF/C Unifilter (Packard). After adding 25 μl of Microscinti 20 (Packard), the radioactivity incorporated into the DNA trapped on the filter was measured using TopCount (Packard). The IC50 of the inhibitory activity of each compound was calculated as the 50% inhibition concentration (IC50 value) of each compound to be tested, by defining the incorporated amount of [^3H]thymidine at the time of VEGF addition as 100%, and its incorporated amount at the time of no addition of VEGF as 0%.
`O=C1Nc2cc(F)ccc2C1=C1C=Cc2cc(OCCN3CCOCC3)ccc2N1` [Example 310] showed an IC50 of 310 nM. For `O=C1Nc2ccccc2C1=C1C=Cc2cc(CNCC3CCCO3)ccc2N1` (centres unmarked) [Example 111], the IC50 was 300 nM. With `CCN(CC)CCCc1ccc2c(c1)C=CC(=C1C(=O)Nc3ccccc31)N2` [Example 99] the IC50 was 130 nM. `CN1CCN(CCOc2ccc3c(c2)C=CC(=C2C(=O)Nc4ccccc42)N3)CC1` [Example 41] gave an IC50 of 120 nM. `CCN(CC)CCOc1ccc2c(c1)C=CC(=C1C(=O)Nc3ccccc31)N2.O=C(O)CCC(=O)O` [Example 44] was tested, and the IC50 was 280 nM. With `O=C1Nc2ccc(F)cc2C1=C1C=Cc2cc(OCCN3CCOCC3)ccc2N1` [Example 311] the IC50 was 240 nM. In the case of `O=C1Nc2ccccc2C1=C1C=Cc2cc(CN3CCOCC3)ccc2N1` [Example 54], the IC50 is reported as 29 nM.

System: Human umbilical vein endothelial cells (HUVEC), VEGF-stimulated
Assay: as above
Format: cell-based
Conditions: human recombinant VEGF 10 ng/ml
Remark: another data set of the same source
`O=C(CN1CCOCC1)Nc1ccc2c(c1)C=CC(=C1C(=O)Nc3ccccc31)N2` [Example 9, 2-morpholin-4-yl-N-[2-(2-oxoindolin-3-ylidene)-1,2-dihydroquinolin-6-yl]acetamide] showed an IC50 of 200 nM. Work on `O=C(Nc1cccnc1)Nc1ccc2c(c1)C=CC(=C1C(=O)Nc3ccccc31)N2` [Example 16, 1-[2-(2-oxoindolin-3-ylidene)-1,2-dihydroquinolin-6-yl]-3-(pyridin-3-yl)urea] yielded an IC50 of 110 nM. `Nc1ccc2c(c1)C=CC(=C1C(=O)Nc3ccccc31)N2` [Example 10, 3-[6-aminoquinolin-2(1H)-ylidene]indolin-2-one] gave an IC50 of 990 nM. `CC(=O)c1ccc2c(c1)NC(=O)C2=C1C=Cc2ccccc2N1` [Example 21, 6-acetyl-3-quinolin-2(1H)-ylideneindolin-2-one] showed an IC50 of 220 nM. `O=C1Nc2ccccc2C1=C1C=Cc2cc(OCCN3CCOCC3)ccc2N1` [Example 4, 3-[6-(2-morpholin-4-ylethoxy)quinolin-2(1H)-ylidene]indolin-2-one] gave an IC50 of 190 nM. In the case of `CN1CCC(COc2ccc3c(c2)C=CC(=C2C(=O)Nc4ccccc42)N3)CC1` [Example 15, 3-{6-[(1-methylpiperidin-4-yl)methoxy]quinolin-2(1H)-ylidene}indolin-2-one], the IC50 is reported as 320 nM. `O=C1Nc2ccccc2C1=C1C=Cc2ccccc2N1` [Compound A, 3-quinolin-2(1H)-ylideneindolin-2-one] was tested, and the IC50 was 140 nM. For `CN1CCN(C(=O)c2ccc3c(c2)C=CC(=C2C(=O)Nc4ccccc42)N3)CC1` [Example 148, 3-[6-(4-methylpiperazine-1-carbonyl)quinolin-2(1H)-ylidene]indolin-2-one], the IC50 was 74 nM. `CN(C)[C@H]1CCCC1Nc1ncc2c(n1)/C(=C1\C=Cc3ccccc3N1)C(=O)N2` (some centres unmarked) [Example 354] was tested, and the IC50 was 140 nM. Compound `O=C1Nc2ccccc2C1=C1C=Cc2cc(OCCn3ccnn3)ccc2N1` [Example 1, 3-{6-[2-(1H-1,2,3-triazol-1-yl)ethoxy]quinolin-2(1H)-ylidene}indolin-2-one] has an IC50 of 210 nM. `O=C1Nc2ccccc2C1=C1C=Cc2cc(CO)ccc2N1` [Example 14, 3-(6-hydroxymethylquinolin-2(1H)-ylidene)indolin-2-one] gave an IC50 of 300 nM.

From patent US20050090498A1, “3-Quinolin-2(1h)-ylideneindolin-2-one derivative” (priority 2001, published 2005)
